# Results from patent US8758816B2, “Compositions comprising azelastine and methods of use thereof” (priority 2004, dated 2014).
# Test system: patients with seasonal allergic rhinitis (SAR)
# Test: MP 428 study: individual symptom severity scores (runny nose, itchy nose, sneezing, congestion; 0-3 scale)
# Format: in vivo, human
# Conditions: Intent-to-Treat Population
# Description: A two-week, randomized, double-blind study, which evaluated the effects of the co-administration of ASTELIN® (azelastine hydrochloride (HCl)) and FLONASE® (fluticasone propionate) compared to either product alone in patients with seasonal allergic rhinitis (SAR) was conducted during the 2006 Texas mountain cedar season. After a 5-day placebo lead-in period, 151 patients with moderate-to-severe allergic rhinitis symptoms were randomized to either: (1) (49 total patients) ASTELIN® (azelastine hydrochloride (HCl)) plus placebo saline nasal spray 2 sprays per nostril, 15 minutes apart, twice daily (AM & PM); (2) (50 total patients) FLONASE® (fluticasone propionate) plus placebo saline nasal spray, 2 sprays per nostril, 15 minutes apart, once daily (AM) and two sessions of placebo saline nasal spray, 2 sprays per nostril, 15 minutes apart (PM); or (3) (52 total patients) the co-administration of ASTELIN® (azelastine hydrochloride (HCl)) 2 sprays per nostril plus FLONASE® (fluticasone propionate) 2 sprays per nostril (AM), 15 minutes apart, and ASTELIN® (azelastine hydrochloride (HCl)) 2 sprays per nostril plus placebo saline nasal spray, 15 minutes apart, (PM) for a 2-week double-blind treatment period.
# The primary efficacy variable was the change from baseline in the Total Nasal Symptom Score (TNSS), which comprised sneezing, itchy nose, runny nose, and nasal congestion (individual symptoms scores were assigned a value between 0 and 3, where 0=no symptoms and 3=severe symptoms). This study was not statistically designed to assess the differences between ASTELIN® and FLONASE®.
# The results of the clinical trial are summarized and presented in Appendix A hereinbelow and in FIGS. 1-6. […] FIGS. 2-5 show the mean improvement in severity score (0-3 scale) from baseline for the symptoms of runny nose, itchy nose, sneezing and congestion, respectively.
compound,measurement,setting,value
"CCC(=O)O[C@]1(C(=O)SCF)[C@H](C)C[C@H]2[C@@H]3C[C@H](F)C4=CC(=O)C=C[C@]4(C)[C@@]3(F)[C@@H](O)C[C@@]21C [Fluticasone, fluticasone propionate]","Percent Change from Baseline in AM and PM Combined Nasal Symptom Score: Congestion, LS Mean",Day 5,−18.74%
same,"Percent Change from Baseline in AM and PM Combined Nasal Symptom Score: Congestion, Mean",Day 5,−19.38%
same,"Percent Change from Baseline in AM and PM Combined Nasal Symptom Score: Congestion, Median",Day 5,−14.29%
same,"Percent Change from Baseline in AM and PM Combined Nasal Symptom Score: Itchy Nose, LS Mean",Day 5,−25.02%
same,"Percent Change from Baseline in AM and PM Combined Nasal Symptom Score: Itchy Nose, Mean",Day 5,−24.64%
same,"Percent Change from Baseline in AM and PM Combined Nasal Symptom Score: Itchy Nose, Median",Day 5,−25.00%
same,"Percent Change from Baseline in AM and PM Combined Nasal Symptom Score: Runny Nose, LS Mean",Day 5,−22.06%
same,"Percent Change from Baseline in AM and PM Combined Nasal Symptom Score: Runny Nose, Mean",Day 5,−22.31%
same,"Percent Change from Baseline in AM and PM Combined Nasal Symptom Score: Runny Nose, Median",Day 5,−21.31%
same,"Percent Change from Baseline in AM and PM Combined Nasal Symptom Score: Sneezing, LS Mean",Day 5,−35.40%
same,"Percent Change from Baseline in AM and PM Combined Nasal Symptom Score: Sneezing, Mean",Day 5,−34.14%
same,"Percent Change from Baseline in AM and PM Combined Nasal Symptom Score: Sneezing, Median",Day 5,−33.33%
same,"Change from Baseline in AM and PM Combined Nasal Symptom Score: Congestion, LS Mean",Day 6,−1.03
same,"Change from Baseline in AM and PM Combined Nasal Symptom Score: Congestion, Mean",Day 6,−1.10
same,"Change from Baseline in AM and PM Combined Nasal Symptom Score: Congestion, Median",Day 6,−0.83
same,"Change from Baseline in AM and PM Combined Nasal Symptom Score: Itchy Nose, LS Mean",Day 6,−1.21
same,"Change from Baseline in AM and PM Combined Nasal Symptom Score: Itchy Nose, Mean",Day 6,−1.21
same,"Change from Baseline in AM and PM Combined Nasal Symptom Score: Itchy Nose, Median",Day 6,−1.00
same,"Change from Baseline in AM and PM Combined Nasal Symptom Score: Runny Nose, LS Mean",Day 6,−1.35
same,"Change from Baseline in AM and PM Combined Nasal Symptom Score: Runny Nose, Mean",Day 6,−1.35
same,"Change from Baseline in AM and PM Combined Nasal Symptom Score: Runny Nose, Median",Day 6,−1.00
same,"Change from Baseline in AM and PM Combined Nasal Symptom Score: Sneezing, LS Mean",Day 6,−1.51
same,"Change from Baseline in AM and PM Combined Nasal Symptom Score: Sneezing, Mean",Day 6,−1.44
same,"Change from Baseline in AM and PM Combined Nasal Symptom Score: Sneezing, Median",Day 6,−1.27
same,"Percent Change from Baseline in AM and PM Combined Nasal Symptom Score: Congestion, LS Mean",Day 6,−19.32%
same,"Percent Change from Baseline in AM and PM Combined Nasal Symptom Score: Congestion, Mean",Day 6,−20.16%
same,"Percent Change from Baseline in AM and PM Combined Nasal Symptom Score: Congestion, Median",Day 6,−14.29%
same,"Percent Change from Baseline in AM and PM Combined Nasal Symptom Score: Itchy Nose, LS Mean",Day 6,−27.12%
same,"Percent Change from Baseline in AM and PM Combined Nasal Symptom Score: Itchy Nose, Mean",Day 6,−26.87%
same,"Percent Change from Baseline in AM and PM Combined Nasal Symptom Score: Itchy Nose, Median",Day 6,−24.76%
same,"Percent Change from Baseline in AM and PM Combined Nasal Symptom Score: Runny Nose, LS Mean",Day 6,−22.60%
same,"Percent Change from Baseline in AM and PM Combined Nasal Symptom Score: Runny Nose, Mean",Day 6,−22.47%
same,"Percent Change from Baseline in AM and PM Combined Nasal Symptom Score: Runny Nose, Median",Day 6,−18.64%
same,"Percent Change from Baseline in AM and PM Combined Nasal Symptom Score: Sneezing, LS Mean",Day 6,−32.10%
same,"Percent Change from Baseline in AM and PM Combined Nasal Symptom Score: Sneezing, Mean",Day 6,−31.22%
same,"Percent Change from Baseline in AM and PM Combined Nasal Symptom Score: Sneezing, Median",Day 6,−32.77%
same,"Change from Baseline in AM and PM Combined Nasal Symptom Score: Congestion, LS Mean",Day 7,−1.03
same,"Change from Baseline in AM and PM Combined Nasal Symptom Score: Congestion, Mean",Day 7,−1.10
same,"Change from Baseline in AM and PM Combined Nasal Symptom Score: Congestion, Median",Day 7,−1.08
same,"Change from Baseline in AM and PM Combined Nasal Symptom Score: Itchy Nose, LS Mean",Day 7,−1.30
same,"Change from Baseline in AM and PM Combined Nasal Symptom Score: Itchy Nose, Mean",Day 7,−1.27
same,"Change from Baseline in AM and PM Combined Nasal Symptom Score: Itchy Nose, Median",Day 7,−1.00
same,"Change from Baseline in AM and PM Combined Nasal Symptom Score: Runny Nose, LS Mean",Day 7,−1.28
same,"Change from Baseline in AM and PM Combined Nasal Symptom Score: Runny Nose, Mean",Day 7,−1.31
same,"Change from Baseline in AM and PM Combined Nasal Symptom Score: Runny Nose, Median",Day 7,−1.45
same,"Change from Baseline in AM and PM Combined Nasal Symptom Score: Sneezing, LS Mean",Day 7,−1.44
same,"Change from Baseline in AM and PM Combined Nasal Symptom Score: Sneezing, Mean",Day 7,−1.33
same,"Change from Baseline in AM and PM Combined Nasal Symptom Score: Sneezing, Median",Day 7,−1.20
same,"Percent Change from Baseline in AM and PM Combined Nasal Symptom Score: Congestion, LS Mean",Day 7,−19.42%
same,"Percent Change from Baseline in AM and PM Combined Nasal Symptom Score: Congestion, Mean",Day 7,−20.17%
same,"Percent Change from Baseline in AM and PM Combined Nasal Symptom Score: Congestion, Median",Day 7,−21.31%
same,"Percent Change from Baseline in AM and PM Combined Nasal Symptom Score: Itchy Nose, LS Mean",Day 7,−27.79%
same,"Percent Change from Baseline in AM and PM Combined Nasal Symptom Score: Itchy Nose, Mean",Day 7,−26.92%
same,"Percent Change from Baseline in AM and PM Combined Nasal Symptom Score: Itchy Nose, Median",Day 7,−23.55%
same,"Percent Change from Baseline in AM and PM Combined Nasal Symptom Score: Runny Nose, LS Mean",Day 7,−18.01%
same,"Percent Change from Baseline in AM and PM Combined Nasal Symptom Score: Runny Nose, Mean",Day 7,−18.63%
same,"Percent Change from Baseline in AM and PM Combined Nasal Symptom Score: Runny Nose, Median",Day 7,−28.99%
same,"Percent Change from Baseline in AM and PM Combined Nasal Symptom Score: Sneezing, LS Mean",Day 7,−31.86%
same,"Percent Change from Baseline in AM and PM Combined Nasal Symptom Score: Sneezing, Mean",Day 7,−30.14%
same,"Percent Change from Baseline in AM and PM Combined Nasal Symptom Score: Sneezing, Median",Day 7,−31.32%
same,"Change from Baseline in AM and PM Combined Nasal Symptom Score: Congestion, LS Mean",Day 8,−0.94
same,"Change from Baseline in AM and PM Combined Nasal Symptom Score: Congestion, Mean",Day 8,−0.98
same,"Change from Baseline in AM and PM Combined Nasal Symptom Score: Congestion, Median",Day 8,−0.83
same,"Change from Baseline in AM and PM Combined Nasal Symptom Score: Itchy Nose, LS Mean",Day 8,−1.33
same,"Change from Baseline in AM and PM Combined Nasal Symptom Score: Itchy Nose, Mean",Day 8,−1.29
same,"Change from Baseline in AM and PM Combined Nasal Symptom Score: Itchy Nose, Median",Day 8,−1.15
same,"Change from Baseline in AM and PM Combined Nasal Symptom Score: Runny Nose, LS Mean",Day 8,−0.95
same,"Change from Baseline in AM and PM Combined Nasal Symptom Score: Runny Nose, Mean",Day 8,−0.98
same,"Change from Baseline in AM and PM Combined Nasal Symptom Score: Runny Nose, Median",Day 8,−0.73
same,"Change from Baseline in AM and PM Combined Nasal Symptom Score: Sneezing, LS Mean",Day 8,−1.41
same,"Change from Baseline in AM and PM Combined Nasal Symptom Score: Sneezing, Mean",Day 8,−1.29
same,"Change from Baseline in AM and PM Combined Nasal Symptom Score: Sneezing, Median",Day 8,−1.25
same,"Percent Change from Baseline in AM and PM Combined Nasal Symptom Score: Congestion, LS Mean",Day 8,−17.55%
same,"Percent Change from Baseline in AM and PM Combined Nasal Symptom Score: Congestion, Mean",Day 8,−17.88%
same,"Percent Change from Baseline in AM and PM Combined Nasal Symptom Score: Congestion, Median",Day 8,−14.29%
same,"Percent Change from Baseline in AM and PM Combined Nasal Symptom Score: Itchy Nose, LS Mean",Day 8,−28.16%
same,"Percent Change from Baseline in AM and PM Combined Nasal Symptom Score: Itchy Nose, Mean",Day 8,−27.33%
same,"Percent Change from Baseline in AM and PM Combined Nasal Symptom Score: Itchy Nose, Median",Day 8,−30.22%
same,"Percent Change from Baseline in AM and PM Combined Nasal Symptom Score: Runny Nose, LS Mean",Day 8,−11.82%
same,"Percent Change from Baseline in AM and PM Combined Nasal Symptom Score: Runny Nose, Mean",Day 8,−12.38%
same,"Percent Change from Baseline in AM and PM Combined Nasal Symptom Score: Runny Nose, Median",Day 8,−14.29%
same,"Percent Change from Baseline in AM and PM Combined Nasal Symptom Score: Sneezing, LS Mean",Day 8,−28.16%
same,"Percent Change from Baseline in AM and PM Combined Nasal Symptom Score: Sneezing, Mean",Day 8,−26.04%
same,"Percent Change from Baseline in AM and PM Combined Nasal Symptom Score: Sneezing, Median",Day 8,−31.03%
